Source: the supplement of paper PMC10784567
± gives the standard deviation of the averaged measurements.

These test systems were tested with C=C1C[C@H]2C=Nc3cc(OCCCCCOc4cc5c(cc4OC)C(=O)N4CC(=C)C[C@H]4C=N5)c(OC)cc3C(=O)N2C1 [SG2057] (assay: absolute IC50 (cell viability, CellTiter-Glo); higher = less potent). Details: treatment time: 3 days.
Experimental: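 Large cancer cell line panel screens in 384-well plates. Cells were treated for 3 days with a 9-point dose titration of the free PBD dimer SG2057; viability was read with CellTiter-Glo. Absolute IC50 came from a four-parameter Hill fit normalised to the median of vehicle (DMSO) wells. Several independent screens (projects) per cell line are averaged; values in µM, lowest-dose floor about 1.524e-5 µM.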
With LNCAP clone FGC the “absolute IC50” value was 0.365 ± 0.13 nM.
NCI-H2228 was tested, and the “absolute IC50” value was 0.279 nM.
For MC-38 Ovalbumin, the “absolute IC50” value was 0.208 nM.
In the case of NCI-H322T, the “absolute IC50” value is reported as 0.912 nM.
For HCT-8, the “absolute IC50” value was 1.43 nM.
PA-TU-8988S was tested, and the “absolute IC50” value was 52.1 nM.
For KCI-MOH1, the “absolute IC50” value was 3.23 ± 2 nM.
HCC-15 was tested, and the “absolute IC50” value was 2.35 ± 3.1 nM.
For NCI-H1915, the “absolute IC50” value was 2.4 nM.
In the case of NCI-H2731, the “absolute IC50” value is reported as 1.29 ± 1.9 nM.
NCI-H187 was tested, and the “absolute IC50” value was 0.1 nM.
In the case of G141, the “absolute IC50” value is reported as 0.924 ± 0.65 nM.
In the case of RERF-GC-1B, the “absolute IC50” value is reported as 1.07 ± 1 nM.
For HCC1054, the “absolute IC50” value was 0.292 nM.
NCI-H2347 was tested, and the “absolute IC50” value was 1.14 ± 2.7 nM.
For G111, the “absolute IC50” value was 0.208 ± 0.22 nM.
For SKG-IIIa, the “absolute IC50” value was 17.7 nM.
With CAL-85-1 the “absolute IC50” value was 1.67 ± 0.48 nM.
In the case of EFM-192A, the “absolute IC50” value is reported as 1.2 nM.
PL45 was tested, and the “absolute IC50” value was 0.402 nM.
For HT-55, the “absolute IC50” value was 3.75 ± 2.6 nM.
MDA-MB-361 was tested, and the “absolute IC50” value was 1.96 ± 2.5 nM.
For HT-3, the “absolute IC50” value was 0.212 nM.
With KP-2 the “absolute IC50” value was 4.15 nM.
HPAC was tested, and the “absolute IC50” value was 13.2 ± 25 nM.
With PK-1 the “absolute IC50” value was 1.53 ± 1.3 nM.
In the case of NCI-H2804, the “absolute IC50” value is reported as 0.718 ± 0.98 nM.
For Hs 294T, the “absolute IC50” value was 0.469 ± 0.75 nM.
For 1624-16997 (Tumor B), the “absolute IC50” value was 0.909 nM.
DLD-1 was tested, and the “absolute IC50” value was 1.01 ± 0.81 nM.
With KARPAS-299 the “absolute IC50” value was 0.581 ± 1.1 nM.
COLO 678 was tested, and the “absolute IC50” value was 5.65 ± 4.5 nM.
For Caco-2, the “absolute IC50” value was 5.17 ± 0.99 nM.
For Hepa 1-6, the “absolute IC50” value was 0.286 nM.
With BFTC-909 the “absolute IC50” value was 0.681 nM.
With COV504 the “absolute IC50” value was 3.76 ± 4 nM.
In the case of SJCRH30, the “absolute IC50” value is reported as 0.422 nM.
UACC-257 was tested, and the “absolute IC50” value was 2.41 nM.
U-2 OS was tested, and the “absolute IC50” value was 0.53 nM.
In the case of NB69, the “absolute IC50” value is reported as 0.612 nM.
For JHH-5, the “absolute IC50” value was 0.248 nM.
In the case of Panc 02.03, the “absolute IC50” value is reported as 2.51 ± 3.8 nM.
For KPR3351, the “absolute IC50” value was 0.931 nM.
For SNU-1, the “absolute IC50” value was 1.89 nM.
In the case of CAL 27, the “absolute IC50” value is reported as 0.164 nM.
For KP-3, the “absolute IC50” value was 2.41 ± 1.7 nM.
With SF268 the “absolute IC50” value was 0.424 ± 0.77 nM.
4T1 Luciferase was tested, and the “absolute IC50” value was 3.01 nM.
SNU-C1 was tested, and the “absolute IC50” value was 3.4 ± 0.35 nM.
For NCI-H1395, the “absolute IC50” value was 1.66 nM.
With HCC1937 the “absolute IC50” value was 4.67 ± 4.4 nM.
Renca was tested, and the “absolute IC50” value was 10.3 ± 12 nM.
G124 was tested, and the “absolute IC50” value was 2.54 nM.
With HCC193 the “absolute IC50” value was 3.17 ± 2.2 nM.
With A-498 the “absolute IC50” value was 2.47 nM.
NCI-H1563 was tested, and the “absolute IC50” value was 3.61 nM.
With OE21 the “absolute IC50” value was 0.259 nM.
With HCSC-1 the “absolute IC50” value was 3.07 nM.
With SF539 the “absolute IC50” value was 0.27 ± 0.54 nM.
In the case of NCI-H1650, the “absolute IC50” value is reported as 2.52 nM.
For 769-P, the “absolute IC50” value was 4.38 ± 4.6 nM.
With KPP14388 the “absolute IC50” value was 0.96 nM.
With MeWo the “absolute IC50” value was 1.08 ± 0.37 nM.
With EFE-184 the “absolute IC50” value was 5.81 ± 7.5 nM.
For HCC1347, the “absolute IC50” value was 2.49 nM.
HCC3335 was tested, and the “absolute IC50” value was 1.59 nM.
With SM1 the “absolute IC50” value was 0.444 nM.
In the case of FOX-NY, the “absolute IC50” value is reported as 0.0773 nM.
For VP267, the “absolute IC50” value was 4.86 nM.
NCI-H460 was tested, and the “absolute IC50” value was 0.242 ± 0.2 nM.
In the case of Hep G2, the “absolute IC50” value is reported as 2.2 nM.
KHM-1B was tested, and the “absolute IC50” value was 0.335 ± 0.24 nM.
For SKG-II, the “absolute IC50” value was 0.0743 nM.
With LS1034 the “absolute IC50” value was 5.72 nM.
With NCI-H1155 the “absolute IC50” value was 0.221 ± 0.2 nM.
T84 was tested, and the “absolute IC50” value was 2.92 ± 2.4 nM.
BA/F3 was tested, and the “absolute IC50” value was 0.114 nM.
In the case of Hs 746T, the “absolute IC50” value is reported as 1.81 ± 3.4 nM.
DOV 13 was tested, and the “absolute IC50” value was 0.241 ± 0.31 nM.
For 1624-17091 (Tumor A), the “absolute IC50” value was 0.849 nM.
NCI-H2170 was tested, and the “absolute IC50” value was 0.646 ± 0.011 nM.
For HCC1159, the “absolute IC50” value was 0.67 nM.
ChaGo-K-1 was tested, and the “absolute IC50” value was 3.31 ± 1.5 nM.
For KELLY, the “absolute IC50” value was 0.12 nM.
For NCI-H2023, the “absolute IC50” value was 0.142 ± 0.27 nM.
In the case of AMO-1, the “absolute IC50” value is reported as 0.409 ± 0.15 nM.
For GOS-3, the “absolute IC50” value was 0.597 nM.
With PL-21 the “absolute IC50” value was 1.38 ± 1.2 nM.
K-562 was tested, and the “absolute IC50” value was 0.617 ± 0.68 nM.
In the case of MKN-45, the “absolute IC50” value is reported as 1.08 ± 0.44 nM.
BT-20 was tested, and the “absolute IC50” value was 1.72 ± 0.74 nM.
In the case of G28T, the “absolute IC50” value is reported as 0.984 ± 1 nM.
HCC2279 was tested, and the “absolute IC50” value was 3.55 ± 6.2 nM.
In the case of NCI-H650, the “absolute IC50” value is reported as 2.97 ± 3.3 nM.
With KNS-62 the “absolute IC50” value was 1.4 ± 2.5 nM.
In the case of COLO 858, the “absolute IC50” value is reported as 1.72 ± 1.4 nM.
KHM-5M was tested, and the “absolute IC50” value was 0.561 nM.
For TYK-nu, the “absolute IC50” value was 0.113 ± 0.18 nM.
With MX-1 the “absolute IC50” value was 2.51 ± 2 nM.
BT-B was tested, and the “absolute IC50” value was 0.864 nM.
HCC4011 was tested, and the “absolute IC50” value was 4.15 ± 4.6 nM.
In the case of MFM-223, the “absolute IC50” value is reported as 0.743 ± 0.14 nM.
In the case of PK-45P, the “absolute IC50” value is reported as 6.29 ± 1.9 nM.
In the case of MT-3, the “absolute IC50” value is reported as 0.947 ± 0.64 nM.
For HCC1534, the “absolute IC50” value was 3.18 ± 2.4 nM.
HCC1576 was tested, and the “absolute IC50” value was 0.476 nM.
In the case of BE(2)-M17, the “absolute IC50” value is reported as 0.494 nM.
For LCLC-97TM1, the “absolute IC50” value was 1.4 nM.
FA9JTOTERT was tested, and the “absolute IC50” value was 0.435 nM.
With COLO 829 the “absolute IC50” value was 0.32 ± 0.18 nM.
With G140 the “absolute IC50” value was 1.28 ± 1.7 nM.
In the case of CI-1, the “absolute IC50” value is reported as 0.104 ± 0.014 nM.
For OCI-AML5, the “absolute IC50” value was 0.0729 ± 0.11 nM.
In the case of GR-M, the “absolute IC50” value is reported as 0.107 ± 0.064 nM.
With NCI-H810 the “absolute IC50” value was 1.42 nM.
In the case of COV318, the “absolute IC50” value is reported as 5.85 ± 6.6 nM.
With HCC3418 the “absolute IC50” value was 0.0218 nM.
For HDQ-P1, the “absolute IC50” value was 4.08 ± 4.4 nM.
For OVTOKO, the “absolute IC50” value was 0.557 ± 0.55 nM.
KYSE-450 was tested, and the “absolute IC50” value was 0.564 nM.
In the case of 51BLim 10, the “absolute IC50” value is reported as 0.371 nM.
G61 was tested, and the “absolute IC50” value was 0.189 ± 0.015 nM.
For HEC-1-B, the “absolute IC50” value was 6.12 nM.
